Test results from patent publication US20260347372A1, “SMALL MOLECULE INHIBITORS OF KRAS G12D MUTANT” (MERCK SHARP & DOHME LLC, priority 2023, published 2026).

Key:
KRAS G12V = KRAS G12V (Homo sapiens, UniProt P01116, G12V); test: SOS-catalyzed nucleotide exchange assay, KRAS G12V (Procedure A); format: biochemical; settings: GNE
Source text: (§1) Procedure for SOS-Catalyzed Nucleotide Exchange Assay for KRAS-WT, G12C/D/V, G13D, HRAS, and NRAS (Procedure A)
(§2) Recombinant KRAS-G12C protein used in this assay has an additional triple mutation (C51S/C80L/C118S). Whereas KRAS-WT, G12D/V, G13D, HRAS and NRAS are in context of their WT protein sequence background. Specifically, the SOS-catalyzed nucleotide exchange assay utilizes a preformed TR-FRET complex containing a specific biotinylated RAS protein (KRAS-WT, G12C/V/D, G13D, HRAS, NRAS; described above) with Bodipy-GDP, and Terbium-streptavidin. Compounds are preincubated with this complex for 60 minutes. Subsequently, recombinant human SOS protein and unlabeled GTP are added to initiate the exchange reaction. Small molecule inhibitors stabilize the Bodipy-GDP complex whereas the untreated protein rapidly exchanges Bodipy-GDP for unlabeled GTP resulting in reduced TR-FRET signal.
(§3) To assemble the preformed TR-FRET complexes, each biotinylated RAS protein is diluted to 2 μM in an EDTA Buffer (20 mM HEPES pH 7.5, 50 mM sodium chloride, 10 mM EDTA, and 0.01% Tween) and incubated at room temperature for one hour. This mixture is then further diluted to 90 nM in an Assay Buffer (20 mM HEPES pH 7.5, 150 mM sodium chloride, 10 mM magnesium chloride, and 0.005% Tween) containing 15 nM of Terbium-Streptavidin (Invitrogen, catalog #PV3577) and 900 nM of Bodipy-GDP (Invitrogen, catalog #G22360) and incubated at room temperature for six hours. It should be noted that this preformed TR-FRET complex for each of the RAS protein were made ahead of time, aliquoted and stored at −80° C. until the day of the experiment.
(§4) Each test compound (10 mM stock in DMSO) is diluted in DMSO to make a final-10-point, 3-fold dilution and is acoustically dispensed into a 384-well assay plate (Corning, catalog #3820) using an Echo 550 (Labcyte). Each well of the assay plate receives 3 μL of a specific 3×RAS preformed TR-FRET complex and 3 μL of Assay Buffer and is incubated at room temperature for 60 minutes (preincubation time). Each well then receives 3 μL of 3× recombinant human SOS protein and GTP (Sigma, G8877) in Assay Buffer and is incubated at room temperature for 30 minutes (G13D), 60 minutes (KRAS WT/G12C/D, H/NRAS) or 90 minutes for G12V. The final reaction in each well of 9 μL consists of 3 mM GTP, specific Ras and SOS proteins in the following concentrations: KRAS-G12C/SOS=3 nM/40 nM, KRAS-WT and G12D/SOS=1 nM/40 nM, KRAS-G12V/SOS=1.25 nM/160 nM, KRAS-G13D/SOS=1.25 nM/0 nM, HRAS and NRAS=1.25 nM/40 nM.
(§5) The time-resolved fluorescence resonance energy transfer (TR-FRET) signal is measured on an Envision (PerkinElmer) plate reader: Excitation filter=340 nm; emission1=495 nm; emission2=520 nm; dichroic mirror=D400/D505; delay time=[…]. The signal of each well is determined as the ratio of the emission at 520 nm to that at 495 nm. Percent effect of each well is determined after normalization to control wells containing DMSO (no effect) or a saturating concentration of inhibitor (max effect). The apparent effect as a function of compound concentration is fit to a four-parameter logistic equation.
(§6) For Example No. 14, nucleotide exchange assays for KRAS G12D, WT, G12C, and G12V were performed according to Procedure B. All the other compounds were tested according to Procedure A.

KRAS G12D = KRAS G12D (Homo sapiens, UniProt P01116, G12D); test: SOS-catalyzed nucleotide exchange assay, KRAS G12D (Procedure A); format: biochemical; settings: guanine nucleotide exchange (GNE)
Source text: as §1, §2, §3, §4, §5, §6

KRAS WT = KRAS WT (Homo sapiens, UniProt P01116); test: SOS-catalyzed nucleotide exchange assay, KRAS WT (Procedure A); format: biochemical; settings: GNE
Source text: as §1, §2, §3, §4, §5, §6

AsPC-1 cells = target: T1, AsPC-1 cells (Homo sapiens, UniProt P01116, G12D); test: Cellular phospho-ERK assay, AsPC-1 cells (KRAS G12D); format: cell-based; settings: 2 hours, read-out: AsPC1 pERK IC50
T1 construct: p-ERK/total ERK AlphaSureFire read-out
Description: Procedure for Cellular Phospho-ERK Assay in KRAS Wild Type and Mutant (G12D, G12V) Cell Lines
PANC08.13 cells (ATCC® CRL-2551™), containing homozygous KRAS-G12D activating mutation, were cultured in growth medium made of RPMI1640-GlutaMAX™-I (ThermoFisher Scientific 61870) containing 15% heat inactivated fetal bovine serum (ThermoFisher Scientific 10091148)). AsPC-1 cells (ATCC® CRL-1682™), containing homozygous KRAS-G12D activating mutation, were cultured in T150 flask in growth medium (RPMI medium 1640-GlutaMAX™-I (ThermoFisher Scientific 61870) containing 10% fetal bovine serum (ThermoFisher Scientific 10091148)).
Cells for the assay were harvested in growth medium after TrypLE (ThermoFisher scientific 12604021) digestion and were seeded in a 384-well collagen coated cell culture plate (Corning 356702) at a density of 10,000-15,000 cells/20 μL/well, and incubated at 37° C., 5% CO2 overnight. The compound (with 10 mM stock concentration) dose-response titrations were prepared [30 μM final ERK detection assay concentration and 1:3 dilutions, 10-point dose response] and appropriate amounts (270 nL) of test compounds were dispensed in a 384-well intermediate plate using an Echo 550 liquid handler. 30 μL/well of RPMI medium 1640-GlutaMAX™-I was added to the intermediate plate and the contents of the intermediate plate (10 μL/well) were then transferred to the 384-well collagen coated cell culture plate, which was incubated at 37° C., 5% CO2 for 2 hours. After removal of medium from the collagen coated cell culture plate, cells were lysed in lysis buffer from Alpha SureFire® Ultra™ Multiplex p-ERK and total ERK assay kit (PerkinElmer MPSU-PTERK) containing Halt™ Protease and Phosphatase inhibitor cocktail (ThermoFisher Scientific 78446) at room temperature with constant shaking at 300 rpm for 30 minutes. The cell lysates were then transferred to an OptiPlate-384 plate (PerkinElmer 6005620), and the phosphorylation of ERK (p-ERK) and total ERK levels were detected by Alpha SureFire® Ultra™ Multiplex p-EEK kit and total ERK assay kit (PerkinElmer MPSU-PTERK) following the manufacturer's protocol. Assay plates were read on a EnVision Multimode Plate Reader (PerkinElmer), and the ratio of p-ERK vs. total ERK in each well was used as the final readout. Dose response curves were analyzed using a 4-parameter logistic model to calculate IC50 values using Spotfire software.

KRAS G12D, sequence (P01116 with tags, fused parts or gaps isoform P01116-2 G12D): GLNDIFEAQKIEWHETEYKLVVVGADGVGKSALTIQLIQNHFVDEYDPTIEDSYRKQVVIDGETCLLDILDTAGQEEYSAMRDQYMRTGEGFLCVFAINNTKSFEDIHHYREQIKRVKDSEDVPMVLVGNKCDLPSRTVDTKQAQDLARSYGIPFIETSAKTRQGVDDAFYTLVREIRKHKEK
KRAS G12V, sequence (P01116 with tags, fused parts or gaps isoform P01116-2 G12V): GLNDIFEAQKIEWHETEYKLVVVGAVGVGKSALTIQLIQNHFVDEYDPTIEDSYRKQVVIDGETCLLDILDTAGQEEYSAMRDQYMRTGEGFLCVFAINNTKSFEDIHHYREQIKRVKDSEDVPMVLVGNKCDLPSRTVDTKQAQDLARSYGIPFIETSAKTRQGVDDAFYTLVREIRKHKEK
T1 sequence (P01116 1-188 isoform P01116-2 G12D): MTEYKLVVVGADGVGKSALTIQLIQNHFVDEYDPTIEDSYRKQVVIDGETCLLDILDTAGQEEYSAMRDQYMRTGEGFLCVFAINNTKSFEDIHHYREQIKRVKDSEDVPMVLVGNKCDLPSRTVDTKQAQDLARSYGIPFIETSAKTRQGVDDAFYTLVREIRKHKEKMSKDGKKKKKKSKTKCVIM
KRAS WT, sequence (P01116 with tags, fused parts or gaps isoform P01116-2): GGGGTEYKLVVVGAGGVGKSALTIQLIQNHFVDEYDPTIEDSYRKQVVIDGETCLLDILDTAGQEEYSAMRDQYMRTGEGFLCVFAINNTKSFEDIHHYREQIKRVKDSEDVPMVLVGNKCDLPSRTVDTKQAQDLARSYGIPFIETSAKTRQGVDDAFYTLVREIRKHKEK

Row | SMILES | IC50 (KRAS G12V) | IC50 (KRAS G12D) | IC50 (KRAS WT) | IC50 (AsPC-1 cells)
1 | Fc1ccc2cc3[nH]ncc3c(-c3nccc4c3C3(CC3)c3nc(OC[C@@]56CCCN5C[C@H](F)C6)nc(N5C[C@H]6CC[C@@H](C5)N6)c3-4)c2c1Cl (single isomer, unassigned) [Ex-117] | 859 nM | 2.4 nM | 369 nM | 189 nM
2 | C#Cc1c(F)ccc2cc3[nH]ncc3c(-c3nccc4c3sc3nc(OCC56CCCN5CC(=C(F)F)C6)nc(N5C[C@H]6CC[C@@H](C5)N6)c34)c12 (stereo partly drawn) [Ex-93, 4-((1R,5S)-3,8-diazabicyclo[3.2.1]octan-3-yl)-2-(((S)-2-(difluoromethylene)tetra-hydro-1H-pyrrolizin-7a(5H)-yl)methoxy)-8-(5-ethynyl-6-fluoro-1H-benzo[f]indazol-4-yl)pyrido[4′,3′:4,5] thie-no[2,3-d]pyrimidine] | 94.3 nM | 1.16 nM | 72.9 nM | 18 nM
3 | Cc1cc2[nH]ncc2c(-c2nccc3c2sc2nc(OCC4CCS(=O)(=O)C4)nc(N4C[C@H]5CC[C@@H](C4)N5)c23)c1C(F)(F)F (stereo partly drawn) [Ex-30, 3-(((4-((1R,5S)-3,8-diazabicyclo[3.2.1]octan-3-yl)-8-(6-methyl-5-(trifluoromethyl)-1H-indazol-4-yl)pyrido[4′,3′:4,5]thieno[2,3-d]pyrimidin-2-yl)oxy)methyl)tetrahydrothio-phene 1,1-dioxide] | > 11100 nM | 2600 nM | > 11100 nM | > 30000 nM
4 | Cc1cc2[nH]ncc2c(-c2nccc3c2sc2nc(OCC4CCS4(=O)=O)nc(N4C[C@H]5CC[C@@H](C4)N5)c23)c1C(F)(F)F (stereo partly drawn) [Ex-31, 2-(((4-((1R,5S)-3,8-diazabicyclo[3.2.1]octan-3-yl)-8-(6-methyl-5-(trifluoromethyl)-1H-indazol-4-yl)pyrido[4′,3′:4,5]thieno[2,3-d]pyrimidin-2-yl)oxy)methyl)thietane 1,1-dioxide] | > 11100 nM | 7790 nM | > 11100 nM | > 30000 nM
5 | C#Cc1c(F)ccc2cc3[nH]ncc3c(-c3nccc4c3sc3nc(OC[C@]5(CN6CC[C@@H](F)C6)CC5(F)F)nc(N5C[C@H]6CC[C@@H](C5)N6)c34)c12 [Ex-103, 4-((1R,5S)-3,8-diazabicyclo[3.2.1]octan-3-yl)-2-(((R)-2,2-difluoro-1-(((R)-3-fluoropyrrolidin-1-yl)methyl)cyclopropyl)methoxy)-8-(5-ethynyl-6-fluoro-1H-benzo[f]indazol-4-yl)pyrido[4′,3′:4,5]thie-no[2,3-d]pyrimidine] | 9280 nM | 2 nM | 2360 nM | 296 nM
6 | F/C=C1\CN2CCC[C@@]2(COc2nc(N3C[C@H]4CC[C@@H](C3)N4)c3c(n2)C2(CC2)c2c-3ccnc2-c2c(C3CC3)c(Cl)cc3[nH]ncc23)C1 (single isomer, unassigned) [Ex-116] | 804 nM | 3.38 nM | 772 nM | 373 nM
7 | Cc1cc2[nH]ncc2c(-c2nccc3c2sc2nc(N4CCCN(C)CC4C)nc(N4C[C@H]5CC[C@@H](C4)N5)c23)c1C(F)(F)F (stereo partly drawn) [Ex-81, 4-((1R,5S)-3,8-diazabicyclo[3.2.1]octan-3-yl)-2-(2,4-dimethyl-1,4-diazepan-1-yl)-8-(6-methyl-5-(trifluoromethyl)-1H-indazol-4-yl)pyrido[4′,3′:4,5]thieno[2,3-d]pyrimidine] | > 11100 nM | 575 nM | > 11100 nM | 6800 nM
8 | C#Cc1c(F)ccc2cc3[nH]ncc3c(-c3nccc4c3sc3nc(OCC5(C#N)CCOCC5)nc(N5C[C@H]6CC[C@@H](C5)N6)c34)c12 [Ex-90, 4-(((4-((1R,5S)-3,8-diazabicyclo[3.2.1]octan-3-yl)-8-(5-ethynyl-6-fluoro-1H-benzo[f]indazol-4-yl)pyrido[4′,3′:4,5]thie-no[2,3-d]pyrimidin-2-yl)oxy)methyl)tetrahy-dro-2H-pyran-4-carbonitrile] | > 11100 nM | 187 nM | > 11100 nM | 3310 nM
